The source of these data is US20260193264A1, “BENZOYPARAZINE PYRAZINES AND THEIR USES” (FOGHORN THERAPEUTICS INC., priority 2022, published 2026).

Read-outs that look alike come from different tables or passages of the source. Bounds are passed on as bounds.

Experiment [1] addresses T1, HiBiT-BRM fusion protein in stable HeLa cell line (Homo sapiens, UniProt P51531).
T1 construct: expressed in transfected cells
As to the kind of experiment: HiBiT-BRM cell-based degradation assay (Nano-Glo HiBiT Lytic Detection, 24 h). Details: DC50: scale not given here. Conditions: HeLa HiBiT-BRM cells; for DC50: read-out: BRM HiBit Degradation IC50; for BRM HiBit Degradation Maximum (%): top dose 30 μM. A digest of the protocol:
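HiBiT-tagged BRM levels in a stable HeLa line are measured after one day of compound treatment (up to 30 μM final, duplicate 10-point curves) by adding LgBiT lytic reagent and reading bioluminescence; values are expressed relative to vehicle and a 2 μM degrader control.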

For experiment [2], the target named is T2, HiBit-BRG1 fusion protein in stable HeLa cell line expressing HiBit-BRG1 and LgBit (Homo sapiens, UniProt P51532).
T2 construct: expressed in transfected cells
The experiment can be described thus: HiBiT-BRG1 cell-based degradation assay (Nano-Glo HiBiT, 24 h). The following applies: HeLa HiBit-BRG1/LgBit cells; for DC50: read-out: BRMG1 HiBit Degradation IC50; for Dmax: top dose 30 μM, read-out: BRG1 HiBit Degradation Maximum (%). In a few lines:
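Degradation calculated from NanoBiT luminescence relative to DMSO-treated cells (high) and cells given 2 μM known BRM/BRG1 degrader (low). HeLa cells stably expressing HiBiT-BRG1 plus LgBiT were exposed to compound for 24 h before lytic HiBiT detection.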
(In general: With HiBiT, luminescence reflects the tagged protein that the partner subunit can reach.)

T1 sequence (P51531 whole entry, the tested form may be a part): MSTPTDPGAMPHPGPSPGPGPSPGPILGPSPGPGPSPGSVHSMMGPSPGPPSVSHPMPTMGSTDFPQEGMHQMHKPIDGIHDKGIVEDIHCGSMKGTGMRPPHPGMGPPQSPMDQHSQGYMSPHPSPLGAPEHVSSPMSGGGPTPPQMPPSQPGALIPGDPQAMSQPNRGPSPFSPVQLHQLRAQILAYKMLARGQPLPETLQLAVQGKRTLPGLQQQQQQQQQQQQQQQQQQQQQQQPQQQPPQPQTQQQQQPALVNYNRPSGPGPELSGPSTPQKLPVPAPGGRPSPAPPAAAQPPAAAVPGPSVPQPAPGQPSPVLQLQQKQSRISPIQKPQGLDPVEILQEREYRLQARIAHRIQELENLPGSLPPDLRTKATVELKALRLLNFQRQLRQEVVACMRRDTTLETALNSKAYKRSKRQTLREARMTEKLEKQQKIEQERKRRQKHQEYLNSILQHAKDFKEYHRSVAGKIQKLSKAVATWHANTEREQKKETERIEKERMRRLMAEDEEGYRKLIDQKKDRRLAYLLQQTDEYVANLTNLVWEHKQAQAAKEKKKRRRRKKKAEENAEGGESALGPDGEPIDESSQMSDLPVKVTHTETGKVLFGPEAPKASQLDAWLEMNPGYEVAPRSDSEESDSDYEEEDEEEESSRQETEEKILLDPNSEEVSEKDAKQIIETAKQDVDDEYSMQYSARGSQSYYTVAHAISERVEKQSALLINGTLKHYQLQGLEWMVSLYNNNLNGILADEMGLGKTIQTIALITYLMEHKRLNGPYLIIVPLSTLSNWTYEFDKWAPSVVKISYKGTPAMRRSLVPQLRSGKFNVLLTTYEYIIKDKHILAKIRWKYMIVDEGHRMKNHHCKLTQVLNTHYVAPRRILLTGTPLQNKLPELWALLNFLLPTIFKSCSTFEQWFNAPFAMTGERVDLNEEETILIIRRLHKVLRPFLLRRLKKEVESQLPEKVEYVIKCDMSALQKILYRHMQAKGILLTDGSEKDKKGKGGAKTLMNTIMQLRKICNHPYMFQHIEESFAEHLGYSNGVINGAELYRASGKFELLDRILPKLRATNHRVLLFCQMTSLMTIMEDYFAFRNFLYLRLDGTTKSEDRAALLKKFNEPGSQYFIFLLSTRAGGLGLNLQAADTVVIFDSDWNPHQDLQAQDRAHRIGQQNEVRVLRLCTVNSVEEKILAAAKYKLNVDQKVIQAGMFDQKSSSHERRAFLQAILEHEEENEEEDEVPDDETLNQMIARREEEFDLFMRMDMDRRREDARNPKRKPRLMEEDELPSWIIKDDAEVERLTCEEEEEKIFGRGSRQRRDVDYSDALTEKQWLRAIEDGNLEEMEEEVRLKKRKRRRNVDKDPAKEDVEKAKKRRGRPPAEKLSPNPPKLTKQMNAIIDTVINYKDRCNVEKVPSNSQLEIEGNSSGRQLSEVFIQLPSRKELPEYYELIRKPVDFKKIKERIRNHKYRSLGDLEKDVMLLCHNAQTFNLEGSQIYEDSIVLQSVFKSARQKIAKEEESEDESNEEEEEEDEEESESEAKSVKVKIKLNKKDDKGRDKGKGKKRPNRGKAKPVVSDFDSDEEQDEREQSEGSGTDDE
T2 sequence (P51532 whole entry, the tested form may be a part): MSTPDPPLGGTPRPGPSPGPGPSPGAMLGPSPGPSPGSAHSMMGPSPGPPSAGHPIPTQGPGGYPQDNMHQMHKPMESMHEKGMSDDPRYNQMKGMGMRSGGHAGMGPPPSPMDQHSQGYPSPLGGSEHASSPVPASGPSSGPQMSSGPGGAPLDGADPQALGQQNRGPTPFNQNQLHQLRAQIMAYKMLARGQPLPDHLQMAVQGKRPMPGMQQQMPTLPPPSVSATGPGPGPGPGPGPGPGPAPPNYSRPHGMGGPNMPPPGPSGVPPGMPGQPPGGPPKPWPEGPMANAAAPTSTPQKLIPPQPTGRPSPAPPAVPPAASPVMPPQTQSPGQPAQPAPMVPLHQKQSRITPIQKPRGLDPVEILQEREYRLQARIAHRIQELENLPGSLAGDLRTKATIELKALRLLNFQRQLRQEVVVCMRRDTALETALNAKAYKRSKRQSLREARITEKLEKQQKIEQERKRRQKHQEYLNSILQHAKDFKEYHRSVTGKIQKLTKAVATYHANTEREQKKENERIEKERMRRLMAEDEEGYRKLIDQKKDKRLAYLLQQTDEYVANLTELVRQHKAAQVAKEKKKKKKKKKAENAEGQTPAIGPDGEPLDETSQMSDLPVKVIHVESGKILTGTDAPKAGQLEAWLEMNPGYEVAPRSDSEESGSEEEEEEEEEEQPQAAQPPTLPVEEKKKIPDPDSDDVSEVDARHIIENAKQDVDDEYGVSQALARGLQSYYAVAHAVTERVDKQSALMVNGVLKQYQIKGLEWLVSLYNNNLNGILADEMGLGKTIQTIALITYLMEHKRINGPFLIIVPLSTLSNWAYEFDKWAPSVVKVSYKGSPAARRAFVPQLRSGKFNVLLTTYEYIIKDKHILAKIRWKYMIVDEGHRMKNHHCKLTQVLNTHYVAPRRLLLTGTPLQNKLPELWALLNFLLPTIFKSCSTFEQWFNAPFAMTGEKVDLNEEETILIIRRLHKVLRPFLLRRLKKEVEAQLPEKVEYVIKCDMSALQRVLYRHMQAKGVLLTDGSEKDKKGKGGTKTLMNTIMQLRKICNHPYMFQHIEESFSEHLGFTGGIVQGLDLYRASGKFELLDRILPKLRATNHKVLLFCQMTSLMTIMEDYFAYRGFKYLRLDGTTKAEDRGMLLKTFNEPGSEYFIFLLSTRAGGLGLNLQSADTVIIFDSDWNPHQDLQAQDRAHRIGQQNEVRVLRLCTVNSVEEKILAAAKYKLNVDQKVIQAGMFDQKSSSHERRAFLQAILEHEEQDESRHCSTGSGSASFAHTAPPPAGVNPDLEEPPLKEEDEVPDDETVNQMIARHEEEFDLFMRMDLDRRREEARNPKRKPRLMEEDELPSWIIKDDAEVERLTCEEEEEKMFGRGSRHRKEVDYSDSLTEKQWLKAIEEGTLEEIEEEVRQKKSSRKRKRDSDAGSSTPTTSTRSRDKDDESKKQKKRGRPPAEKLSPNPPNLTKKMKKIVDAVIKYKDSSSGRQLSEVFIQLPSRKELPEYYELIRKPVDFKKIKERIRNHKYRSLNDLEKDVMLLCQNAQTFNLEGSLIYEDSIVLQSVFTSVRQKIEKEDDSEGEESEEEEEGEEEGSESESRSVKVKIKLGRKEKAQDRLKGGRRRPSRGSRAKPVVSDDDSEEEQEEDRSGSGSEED

As for `Cc1ncsc1-c1ccc([C@H](C)NC(=O)[C@@H]2C[C@@H](O)CN2C(=O)[C@@H](c2cc(-c3cnc(N4CC5(CC(c6ccc7cc(-c8ccccc8O)nnc7c6)C5)C4)nc3)no2)C(C)C)cc1` [Compound 18], in experiment [1], the DC50 was less than 10 nM and the “BRM HiBit Degradation Maximum (%)” value is “A (“A” indicates maximum degradation ≥75%)”. In addition, in experiment [2], the DC50 was greater than 10 nM and the Dmax was greater than 50%.

On to `Cc1ncsc1-c1ccc([C@H](C)NC(=O)[C@@H]2C[C@@H](O)CN2C(=O)[C@@H](c2cc(N3CC4(CCN4c4ccc5cc(-c6ccccc6O)nnc5c4)C3)no2)C(C)C)cc1` [Compound 100, (2S,4R)-4-hydroxy-1-((R)-2-(3-(1-(3-(2-hydroxyphenyl)cinnolin-7-yl)-1,6-diazaspiro[3.3]heptan-6-yl)isoxazol-5-yl)-3-methylbutanoyl)-N-((S)-1-(4-(4-methylthiazol-5-yl)phenyl)ethyl)pyrrolidine-2-carboxamide], for which, in experiment [1], the DC50 is greater than 10 nM and the “BRM HiBit Degradation Maximum (%)” value was “B (“B” indicates maximum degradation ≥50%)”. Further, in experiment [2], the Dmax was less than 50%.

Regarding `Cc1ncsc1-c1ccc([C@H](C)NC(=O)[C@@H]2C[C@@H](O)CN2C(=O)C(C(C)C)n2cc(N3CCN(CC4CCCN(c5ccc6nnc(-c7ccccc7O)cc6c5)C4)CC3)nn2)cc1` (stereo partly drawn) [Compound 280], in experiment [1], the DC50 was less than 10 nM and the “BRM HiBit Degradation Maximum (%)” value was “A (“A” indicates maximum degradation ≥75%)”. For the same molecule, in experiment [2], the DC50 is less than 10 nM and the Dmax is greater than 75%.

For the molecule `Cc1ncsc1-c1ccc([C@H](C)NC(=O)[C@@H]2C[C@@H](O)CN2C(=O)[C@H](C(C)C)n2cc(-c3ccc4nnc(-c5ccccc5O)cc4c3)nn2)cc1` [Compound 128, (2S,4R)-4-hydroxy-1-((S)-2-(4-(3-(2-hydroxyphenyl)cinnolin-6-yl)-1H-1,2,3-triazol-1-yl)-3-methylbutanoyl)-N—((S)-1-(4-(4-methylthiazol-5-yl)phenyl)ethyl)pyrrolidine-2-carboxamide], in experiment [1], the DC50 was less than 10 nM and the “BRM HiBit Degradation Maximum (%)” value is “A (“A” indicates maximum degradation ≥75%)”. Besides, in experiment [2], the DC50 was less than 10 nM and the Dmax was greater than 75%.

As to `Cc1ncsc1-c1ccc([C@H](C)NC(=O)[C@@H]2C[C@@H](O)CN2C(=O)[C@@H](c2cc(N3C[C@]4(C)CN(c5ccc6cc(-c7ccccc7O)nnc6c5)C[C@]4(C)C3)no2)C(C)C)cc1` [Compound 187, (2S,4R)-4-hydroxy-1-((R)-2-(3-((3aR,6aS)-5-(3-(2-hydroxyphenyl)cinnolin-7-yl)-3a,6a-dimethylhexahydropyrrolo[3,4-c]pyrrol-2(1H)-yl)isoxazol-5-yl)-3-methylbutanoyl)-N-((S)-1-(4-(4-methylthiazol-5-yl)phenyl)ethyl)pyrrolidine-2-carboxamide], in experiment [1], the DC50 was less than 10 nM and the “BRM HiBit Degradation Maximum (%)” value is reported as “A (“A” indicates maximum degradation ≥75%)”. Also, in experiment [2], the DC50 was greater than 10 nM and the Dmax was greater than 75%.

With `Cc1ncsc1-c1ccc([C@H](C)NC(=O)[C@@H]2C[C@@H](O)CN2C(=O)[C@H](c2cc(-c3cnc(N4CCN(c5ccc6nnc(-c7ccccc7O)cc6c5)CC4)nc3)no2)C(C)C)cc1` [Compound 14, (2S,4R)-4-hydroxy-1-((S)-2-(3-(2-(4-(3-(2-hydroxyphenyl)cinnolin-6-yl)piperazin-1-yl)pyrimidin-5-yl)isoxazol-5-yl)-3-methylbutanoyl)-N—((S)-1-(4-(4-methylthiazol-5-yl)phenyl)ethyl)pyrrolidine-2-carboxamide], in experiment [1], the DC50 is greater than 10 nM and the “BRM HiBit Degradation Maximum (%)” value is given as “A (“A” indicates maximum degradation ≥75%)”. In experiment [2], the DC50 is greater than 100 nM and the Dmax was greater than 75%.

On to `COc1cc2cc(-c3ccccc3O)nnc2cc1N1CC2(CN(c3cc([C@H](C(=O)N4C[C@H](O)C[C@H]4C(=O)N[C@@H](C)c4ccc(-c5scnc5C)cc4)C(C)C)on3)C2)C1` [Compound 159, (2S,4R)-4-hydroxy-1-((R)-2-(3-(6-(3-(2-hydroxyphenyl)-6-methoxycinnolin-7-yl)-2,6-diazaspiro[3.3]heptan-2-yl)isoxazol-5-yl)-3-methylbutanoyl)-N-((S)-1-(4-(4-methylthiazol-5-yl)phenyl)ethyl)pyrrolidine-2-carboxamide], for which, in experiment [1], the DC50 was less than 10 nM and the “BRM HiBit Degradation Maximum (%)” value is listed as “A (“A” indicates maximum degradation ≥75%)”. Also, in experiment [2], the DC50 was less than 10 nM and the Dmax is greater than 75%.

With `Cc1ncsc1-c1ccc([C@H](C)NC(=O)[C@@H]2C[C@@H](O)CN2C(=O)[C@@H](c2cc(N3CCCC4(CN(c5ccc6nnc(-c7ccccc7O)cc6c5)C4)C3)no2)C(C)C)cc1` [Compound 166, (2S,4R)-4-hydroxy-1-((R)-2-(3-(2-(3-(2-hydroxyphenyl)cinnolin-6-yl)-2,6-diazaspiro[3.5]nonan-6-yl)isoxazol-5-yl)-3-methylbutanoyl)-N-((S)-1-(4-(4-methylthiazol-5-yl)phenyl)ethyl)pyrrolidine-2-carboxamide], in experiment [1], the DC50 was less than 10 nM and the “BRM HiBit Degradation Maximum (%)” value is recorded as “A (“A” indicates maximum degradation ≥75%)”. For the same molecule, in experiment [2], the DC50 is greater than 10 nM and the Dmax was greater than 75%.

Take `Cc1ncsc1-c1ccc([C@H](C)NC(=O)[C@@H]2C[C@@H](O)CN2C(=O)[C@H](C2CCC2)n2cc(N3CC4(CN(c5ccc6cc(-c7ccccc7O)nnc6c5)C4)C3)nn2)cc1` [Compound 211, (2S,4R)-1-((S)-2-cyclobutyl-2-(4-(6-(3-(2-hydroxyphenyl)cinnolin-7-yl)-2,6-diazaspiro[3.3]heptan-2-yl)-1H-1,2,3-triazol-1-yl)acetyl)-4-hydroxy-N-((S)-1-(4-(4-methylthiazol-5-yl)phenyl)ethyl)pyrrolidine-2-carboxamide]: in experiment [1], the DC50 was less than 10 nM and the “BRM HiBit Degradation Maximum (%)” value is recorded as “A (“A” indicates maximum degradation ≥75%)”. The Dmax in experiment [2] is less than 50%.

Consider `CC(C)[C@@H](C(=O)N1C[C@H](O)C[C@H]1C(=O)N[C@@H](C)c1ccc(F)cc1)c1cc(N2CC3(C2)CN(c2cc4nnc(-c5ccccc5O)cc4cc2C#N)C3)no1` [Compound 217, (2S,4R)-1-((R)-2-(3-(6-(6-cyano-3-(2-hydroxyphenyl)cinnolin-7-yl)-2,6-diazaspiro[3.3]heptan-2-yl)isoxazol-5-yl)-3-methylbutanoyl)-N-((S)-1-(4-fluorophenyl)ethyl)-4-hydroxypyrrolidine-2-carboxamide], for which, in experiment [1], the DC50 is less than 10 nM and the “BRM HiBit Degradation Maximum (%)” value is “A (“A” indicates maximum degradation ≥75%)”. Moreover, the Dmax in experiment [2] is less than 50%.

With `C#Cc1cc2nnc(-c3ccccc3O)cc2cc1N1CC2(CN(c3cc([C@H](C(=O)N4C[C@H](O)C[C@H]4C(=O)N[C@@H](C)c4ccc(-c5scnc5C)cc4)C(C)C)on3)C2)C1` [Compound 241, (2S,4R)-1-((R)-2-(3-(6-(7-ethynyl-3-(2-hydroxyphenyl)cinnolin-6-yl)-2,6-diazaspiro[3.3]heptan-2-yl)isoxazol-5-yl)-3-methylbutanoyl)-4-hydroxy-N-((S)-1-(4-(4-methylthiazol-5-yl)phenyl)ethyl)pyrrolidine-2-carboxamide], in experiment [1], the DC50 was less than 10 nM and the “BRM HiBit Degradation Maximum (%)” value was “A (“A” indicates maximum degradation ≥75%)”. Besides, in experiment [2], the DC50 was less than 10 nM and the Dmax is greater than 75%.

As to `Cc1ncsc1-c1ccc([C@H](C)NC(=O)[C@H]2C[C@H](O)CN2C(=O)C(c2cc(N3C[C@@H]4C[C@H]3CN4c3ccc4cc(-c5ccccc5O)nnc4c3)no2)C(C)C)cc1` (stereo partly drawn) [Compound 224, (2R,4S)-4-hydroxy-1-(2-(3-((1S,4S)-5-(3-(2-hydroxyphenyl)cinnolin-7-yl)-2,5-diazabicyclo[2.2.1]heptan-2-yl)isoxazol-5-yl)-3-methylbutanoyl)-N-((S)-1-(4-(4-methylthiazol-5-yl)phenyl)ethyl)pyrrolidine-2-carboxamide], in experiment [1], the DC50 is less than 10 nM and the “BRM HiBit Degradation Maximum (%)” value was “A (“A” indicates maximum degradation ≥75%)”. Besides, in experiment [2], the DC50 was greater than 10 nM and the Dmax is greater than 75%.

For `Cc1ncsc1-c1ccc([C@H](C)NC(=O)[C@@H]2C[C@@H](O)CN2C(=O)[C@H](c2cc(-c3cnc(N4CC(c5cc6nnc(-c7ccccc7O)cc6cc5Cl)C4)nc3)no2)C(C)C)cc1` [Compound 31], the DC50 in experiment [1] (given as a number) was found to be 243 nM. Further, the “BRM HiBit Degradation Maximum (%)” value in experiment [1] was “A (“A” indicates maximum degradation ≥75%)”. Further, the Dmax in experiment [2] is less than 50%.

Consider `Cc1ncsc1-c1ccc([C@H](C)NC(=O)[C@@H]2C[C@@H](O)CN2C(=O)[C@@H](c2cc(N3CC4(CN(c5ccc6cc(-c7ccccc7O)nnc6c5)C4)C3)sn2)C(C)C)cc1` [Compound 195, (2S,4R)-4-hydroxy-1-[(2R)-2-(5-{6-[3-(2-hydroxyphenyl)cinnolin-7-yl]-2,6-diazaspiro[3.3]heptan-2-yl}-1,2-thiazol-3-yl)-3-methylbutanoyl]-N-[(1S)-1-[4-(4-methyl-1,3-thiazol-5-yl)phenyl]ethyl]pyrrolidine-2-carboxamide], for which, in experiment [1], the DC50 was less than 10 nM and the “BRM HiBit Degradation Maximum (%)” value is reported as “A (“A” indicates maximum degradation ≥75%)”. In addition, in experiment [2], the Dmax is greater than 50%.
